Usually EC50 stands for the concentration that produces a half-maximal response. By fold induction is commonly meant the ratio of treated to control signal. Low readings indicate a weak induction, high ones a strong induction.

Results on ten compounds are retold here after PMC5451472, “Novel Locally Active Estrogens Accelerate Cutaneous Wound Healing-Part 2” (Scientific Reports, 2017).

One data set has as its target T1, ERs (Homo sapiens, UniProt P03372).
T1 construct: endogenous in cells; host or cells: MCF-7, clone ERE-Luc B17 (only the luciferase reporter is transfected)
T1 sequence (P03372 1-595): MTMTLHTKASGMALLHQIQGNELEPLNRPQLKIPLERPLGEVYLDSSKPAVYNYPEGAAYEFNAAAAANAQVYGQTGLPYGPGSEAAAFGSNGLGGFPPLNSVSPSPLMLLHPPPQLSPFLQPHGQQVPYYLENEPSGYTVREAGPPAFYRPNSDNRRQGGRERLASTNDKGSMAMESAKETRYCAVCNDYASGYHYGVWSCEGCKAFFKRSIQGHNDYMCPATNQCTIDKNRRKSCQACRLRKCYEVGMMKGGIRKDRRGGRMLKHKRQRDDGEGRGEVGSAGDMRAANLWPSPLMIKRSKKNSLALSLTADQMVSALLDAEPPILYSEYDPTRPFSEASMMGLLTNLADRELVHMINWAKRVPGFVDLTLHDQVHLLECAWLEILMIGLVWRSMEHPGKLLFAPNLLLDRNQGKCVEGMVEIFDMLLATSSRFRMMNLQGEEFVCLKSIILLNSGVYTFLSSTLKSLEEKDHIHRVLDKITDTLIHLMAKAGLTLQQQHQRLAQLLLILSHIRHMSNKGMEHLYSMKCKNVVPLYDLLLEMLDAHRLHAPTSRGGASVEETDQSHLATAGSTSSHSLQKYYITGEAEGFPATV
In words: ER transactivation assay in ERE-Luc B17 cells (luciferase reporter). The format is cell-based. Conditions: for EC50: ERE-Luc B17 cells (MCF-7 clone), 24 h, luciferase activity, sigmoidal dose-response, read-out: EC50 (transactivation potency); for fold induction at 10 µM / activity on ERs: ERE-Luc B17 cells; for fold induction at 10 µM: 10^-5 M of compound respect to vehicle. The method, then:
The ability of the novel compounds to transcriptionally activate ERs was tested in ERE-Luc B 17 cells, a clone of the breast cancer cell line MCF-7 stably transfected with a reporter constituted by the luciferase gene driven by an estrogen-regulated synthetic promoter previously generated and tested in our laboratories.
Cells were split twice a week by seeding 2 × 10^6 cells in 100 mm diameter Petri (Corning) dishes.
After 24 h cells were rinsed once with PBS before preparing the protein extract for the determination of luciferase content. Each experiment was carried out in duplicate.
Luciferase enzymatic activity was measured in cells or selected tissue homogenates by a luminometer (Glomax™96 microplate luminometer; Promega) using Promega standard luciferin (Beetle Luciferin Potassium Salt) and expressed as Relative Light Units over 10 sec/μg protein (RLU/μg protein). Proteins concentrations were measured by Bradford.
Analysis of transactivation data and calculation of EC50 values were performed by means of sigmoidal dose-response (variable slope) using PRISM5 software (GraphPad Software Inc.).

The test system of data set [1] is ER transcriptional activity. Kind of data set: In vivo BLI time course in wounded ovariectomized ERE-Luc mice, compounds s.c. around the wound. More on the design: species or system mouse. On the procedure:
To study the estrogenic and healing properties of the two compounds, we generated a wound in the ERE-Luc mouse model and tested the activity of the two compounds administered s.c. in the area surrounding the wound as described in the methodology section.
Each group was composed of 4 ERE-Luc females’ mice ovariectomized 2 weeks’ prior the experiment to avoid any interference due to endogenous estrogens. Photon emission was measured in the living animals three times: at 0, 3 and 6 h after s.c. injection.
(§1) ERE-Luc and MITO-Luc mice were ovariectomized at two months of age; the experiment was done 2 weeks after surgery to allow the animals to recover and to decrease the levels of circulating estrogens. The animals were fed ad libitum with a special estrogen free diet (AIN 93 M, Mucedola) (Ciana et al. Endocrinology 2005) and housed in individually ventilated plastic cages within a temperature range of 22–25 °C, relative humidity of 50% ± 10% and under an automatic cycle of 12 h light/dark (lights on at 07:00 am). All animal experimentation was carried out in accordance with the ARRIVE and European Guidelines for Animal Care. All animal experiments were approved by the Italian Ministry of Research and University and controlled by a Departmental panel of experts. For the correct dosage of the compounds, the body weight of the animals (on empty stomach, fasted for at least 12–14 hours) was determined immediately before the treatment.
(§2) Ovariectomy was carried out as previously described. Wound healing was done after shaving by VEET depilatory cream a day before the treatment. The 1 cm full-thickness incisional wound was made through the skin and panniculus carnosus muscle of ovariectomized MITO-luc using a surgical scalpel (blade n°10, carbon steel, Swann-Morton Ltd). Round full-thickness wounds were done by cutting out a section of full-thickness skin (around 9 mm in diameter) using fine scissors on the dorsal skin of the isoflurane-anesthetized animal. For in vivo treatment the compounds were administered onto the subcutaneous area surrounding the wound by multiple subcutaneous injection, immediately after the generation of the wound.
For the semi-quantitative analysis of in vivo photon emission, animals were injected i.p. with 80 mg/kg of luciferin (Beetle Luciferin Potassium Salt; Promega, Madison, WI, USA) 15 min prior the imaging session. For the imaging, mice were anaesthetized using isofluorane (Isofluorane-Vet; Merial, Lyon, France) and kept under anesthesia during the 5 minutes of the session carried out with a CCD camera: both ventral and dorsal acquisition (Xenogen IVIS Lumina System; Caliper, PerkinElmer company). Photon emission in selected body areas was measured using the Living Image Software (Caliper, PerkinElmer company). The analysis was done in ventral view: whole body, thymus, hepatic area, abdomen, limbs, vagina and in dorsal view in wound area and expressed as photon/second/cm2/steradiant (p/s/cm2/sr).

Data set [2] relates to MITO-Luc mice. In words: Macrophage count (Iba1 immunohistochemistry) around the wound site. The format is in vivo, mouse. The conditions noted are these: 20 µg/kg s.c., 72 hours after treatment. On the procedure: To better understand whether the healing effect of 1e could be attributed to its anti-inflammatory action, at the end of in vivo imaging (72 hours after treatments) the tissue surrounding the wound was dissected and subjected immunohistochemical analysis using the pan macrophage marker Iba1. […] This observation confirmed that the estrogenic compounds were able to regulate the immune response at local level.
In particular, the criteria for the assignation of granulations value are: 1 = wound bed partially covered with granulation tissue; 2 = thin granulation over the whole wound bed; 3 = thick granulation over the whole wound bed. Evaluation of macrophages was done through a specific antibody and digital image analysis: 4 µm sections from each wound healing sample were immunostained with primary rabbit […] antibody against Iba1 antigen (Wako; #019-19741) to assess the number of macrophages.
The number of positive cells were counted using the ImageJ analysis program (http://rsb.info.nih.gov/ij/) in 400x microscopic fields selected at the periphery of the wound area.

The subject of data set [3] is MITO-Luc mice (reporter of mitosis). Kind of data set: Proliferation in the wound area, in vivo BLI of MITO-Luc mice. More on the design: species or system mouse.
Excerpt: Wound healing is a dynamic process consisting of four continuous, overlapping, and precisely programmed phases: hemostasis, inflammation, proliferation and tissue growth (proliferation) and remodeling (maturation). The healing effect of estrogens may be exerted at several levels, certainly the ability of the hormone to accelerate macrophage polarization towards the M2-reparative polarization stage plays a relevant role, however estrogens may also facilitate local cell proliferation and the formation of the granulation tissue, epithelialization, and wound contraction.
The experiments were done with the 1e compound as completely deprived of any activity on the uterus (Fig. 6). […] Photon emission was measured in the wound area at the following time: 0, 24, 48 and 72 hours post-treatment.
as §1
Ovariectomy was carried out as previously described. Wound healing was done after shaving by VEET depilatory cream a day before the treatment. The 1 cm full-thickness incisional wound was made through the skin and panniculus carnosus muscle of ovariectomized MITO-luc using a surgical scalpel (blade n°10, carbon steel, Swann-Morton Ltd). Round full-thickness wounds were done by cutting out a section of full-thickness skin (around 9 mm in diameter) using fine scissors on the dorsal skin of the isoflurane-anesthetized animal. […]
For the semi-quantitative analysis of in vivo photon emission, animals were injected i.p. with 80 mg/kg of luciferin (Beetle Luciferin Potassium Salt; Promega, Madison, WI, USA) 15 min prior the imaging session. […] Photon emission in selected body areas was measured using the Living Image Software (Caliper, PerkinElmer company). The analysis was done in ventral view: whole body, thymus, hepatic area, abdomen, limbs, vagina and in dorsal view in wound area and expressed as photon/second/cm2/steradiant (p/s/cm2/sr).

Data set [4] has as its system MITO-Luc mice. Kind of data set: Wound area measurement in MITO-Luc mice. The format is in vivo, mouse. Conditions: 20 µg/kg s.c., 72 hours after treatment (vehicle 50%). The method, then: To investigate to which extent the increased proliferation observed after the pharmacological treatments was functional to the healing process, we measured the size of the wound (Fig. 9a).
as §2

Data set [5] has as its system MITO-Luc mice. In words: Granulation tissue histoscore of round full-thickness wound at day 10. It is filed as in vivo, mouse. Conditions: 20 µg/kg s.c., day 10, round wound, scale 1-3 (vehicle 0.3). The method, then: The measure of photon emission from the wound area was done for several days after the wounding. 3 days after treatment the bioluminescent signal is highest (Fig. 10 Panel a).
as §2
At the time of euthanasia, the wounds with surrounding healthy tissue were excised, distended on a strip of hard paper and fixed in 10% buffered formalin (pH = 6). […] For histopathological examination 4 µm sections were routinely stained with Hematoxylin-Eosin (HE) and evaluated under a light microscope. The degree of re-epithelialization, the type and amount of granulation tissue and inflammation, which are the main features of wound healing, were scored separately. […]

In another data set the test system is ERE-Luc mice. Kind of data set: Uterus weight of ERE-Luc mice. It is filed as in vivo, mouse. Conditions: 20 µg/kg s.c., 6 h after treatment. The text has this: The final study aiming at investigating the systemic effect of the NCE was done by measuring the uterus weight of all treated animal as the golden standard for the quantitative measure of estrogenic compounds.

On the set-up of data set [6]: method as in PMID 19718805. Conditions: cited from earlier work.

Structures are written as SMILES.

Consider `COC(=O)CCC#C[C@]1(O)CC[C@H]2[C@@H]3CCc4cc(O)ccc4[C@H]3CC[C@@]21C` [1a, 3,17β-Hydroxy-17α-(4′carbomethoxy-1′-butyn-1′-yl)estra-1,3,5-(10)-triene], for which, at ERs, the 50% effective concentration (EC50) is 920 nM and the fold induction at 10 µM is 4.3.
With `CC(C)OC(=O)CCC#C[C@]1(O)CC[C@H]2[C@@H]3CCc4cc(O)ccc4[C@H]3CC[C@@]21C` [1d, 3,17β-Hydroxy-17α-(4′carbo-iso-propoxy-1′-butyn-1′-yl)estra-1,3,5-(10)-triene], the fold induction at 10 µM on ERs is 5.
As to `CCOC(=O)CCCC#C[C@]1(O)CC[C@H]2[C@@H]3CCc4cc(O)ccc4[C@H]3CC[C@@]21C` [1h], at ERs, the “activity on ERs” value is “did not show any activity”.
`COC(=O)CCCC#C[C@]1(O)CC[C@H]2[C@@H]3CCc4cc(O)ccc4[C@H]3CC[C@@]21C` [1g, 3,17β-Hydroxy-17α-(5′carbomethoxy-1′-butyn-1′-yl)estra-1,3,5-(10)-triene]: on ERs, the EC50 stood at 130 nM and the fold induction at 10 µM came to 2.5.
As to `C[C@]12CC[C@@H]3c4ccc(O)cc4CC[C@H]3[C@@H]1CC[C@@H]2O` [17β-estradiol, reference compound], in data set [1] (20 µg/kg s.c. around wound, ovx mice), the “luciferase activity in whole body and body areas” value was “induced a significant increase”. Further, the “increase of photon emission in the wound area with respect to vehicle-treated mice” value in data set [1] (20 µg/kg s.c., 6 hours) was 40%. For the same compound, the “number of macrophages (Iba1 positive) in the wound area lower than in controls” value in the data set with MITO-Luc mice [2] is 44%. In data set [3] (20 µg/kg s.c. around wound, 72 h versus time 0, ovx MITO-Luc), the “increase of photon emission from wound” value is reported as 78%. In addition, in data set [3] (20 µg/kg s.c., 48 hours after administration), the “photon emission from the wound area” value is “significantly increased”. The same compound returned a wound area reduction with MITO-Luc mice [4] of 60%. The “Score of granulation tissue (fibrosis), histoscore mean” value in the data set on MITO-Luc mice [5] is listed as 2. The “uterus weight higher than average weight of controls” value in the data set with ERE-Luc mice is 35%. The average uterus weight in the data set with ERE-Luc mice (n = 4) came to 22.8 mg.
`CCOC(=O)CCC#C[C@]1(O)CC[C@H]2[C@@H]3CCc4cc(O)ccc4[C@H]3CC[C@@]21C` [1b, 3,17β-Hydroxy-17α-(4′carbethoxy-1′-butyn-1′-yl)estra-1,3,5-(10)-triene]: on ERs, the “activity on ERs” value is “did not show any activity”.
As to `CCCCC(=O)OCCC#C[C@]1(O)CC[C@H]2[C@@H]3CCc4cc(O)ccc4[C@H]3CC[C@@]21C` [2e], the “in vivo healing and systemic activity” value in data set [6] was “substantially accelerated healing without systemic activity”.
As for `C[C@]12CC[C@@H]3c4ccc(O)cc4CC[C@H]3[C@@H]1CC[C@@]2(O)C#CCCCO` [6a], the “activity on ERs” value on ERs was “did not show any activity”.
On to `CCCOC(=O)CCC#C[C@]1(O)CC[C@H]2[C@@H]3CCc4cc(O)ccc4[C@H]3CC[C@@]21C` [1c, 3,17β-Hydroxy-17α-(4′carbopropoxy-1′-butyn-1′-yl)estra-1,3,5-(10)-triene], for which, at ERs, the EC50 is 2300 nM and the fold induction at 10 µM was determined as 2.6.
On to `CCCCCOC(=O)CCC#C[C@]1(O)CC[C@H]2[C@@H]3CCc4cc(O)ccc4[C@H]3CC[C@@]21C` [1f], for which the “photon emission in body areas (whole body, thymus, hepatic area, abdomen, limbs, vagina)” value in data set [1] (200 µg/kg s.c. around wound, 3 or 6 h, ovx mice) is listed as “did not observe increased photon emission in any of the body areas”. For the same compound, the “increase of photon emission in the wound area with respect to time 0” value in data set [1] (200 µg/kg s.c., 6 hours, trend) was determined as 20%.
